{"source": "patent US4091206A", "about": "“Quinoxaline-1,4-dioxide derivatives” (Egyt Gyogyszervegyeszeti Gyar, priority 1974, dated 1978)", "key": {"pigs": {"system": "pigs", "assay": "weight gain increasing effect on pigs (fodder admixed with compound), fodder utilization factor", "format": "in vivo", "conditions": "fodder admixed with 50 mg./kg. of compound, index from feeding coefficient and percentage daily weight gain, control 50", "procedure": "When utilized as fodder additives, the new compounds according to the invention increase the weight gain and fodder utilization of pigs. The weight gain increasing effect of the compounds was tested on pigs as follows:\nThe animals were fed under the same conditions with fodders of the same amount and composition. In the test groups the animals received a fodder admixed with 50 mg./kg. of the compound to be tested, whereas no additive was admixed with the fodder in the control group.\nThe weight gain was measured daily, and the feeding coefficient (amount of consumed fodder resulting in a weight gain of 1 kg.) was calculated. The percentage daily weight gain was calculated by the formula [formula]\nSince the rate of weight gain increasing effect depends on both the feeding coefficient and the percentage daily weight gain, and because of the actual fodder consumption and the time required to reach the slaughter weight are the important factors of economical animal husbandry, an index characteristic of the rate of weight gain increase was calculated from the above data by the equation [formula] The higher is the fodder utilization factor the more economic is the pig-breeding.\n(§1) The fodder utilization factors determined for the compounds according to the invention, furthermore the oral toxicity data of the novel compounds measured on mice are listed in Table 1. For the sake of comparison the respective data of some known compounds structurally related to those of formula I are also given."}, "oral toxicity on mice": {"assay": "oral toxicity on mice", "conditions": "mouse, in vivo", "description": "as §1"}}}
{"smiles": "CCCCCCC(=O)NN=Cc1c[n+]([O-])c2ccccc2[n+]1[O-]", "note": "[hexyl, 2-(Hexylcarbonyl-hydrazono-formyl)-quinoxaline-1,4-dioxide]", "values": [{"measurement": "Fodder utilization factor", "setting": "pigs", "value": 53}, {"measurement": "LD50", "setting": "oral toxicity on mice; po", "value": 4000, "unit": "mg/kg"}]}
{"smiles": "O=C(NN=Cc1c[n+]([O-])c2ccccc2[n+]1[O-])c1ccc([N+](=O)[O-])o1", "note": "[Example 5-nitrofuryl, 2-(5'-Nitro-2'-furanoyl)-hydrazono-formyl-quinoxaline-1,4-dioxide]", "values": [{"measurement": "Fodder utilization factor", "setting": "pigs", "value": 91}, {"measurement": "LD50", "setting": "oral toxicity on mice; po", "value": 14000, "unit": "mg/kg"}]}
{"smiles": "O=C(NN=Cc1c[n+]([O-])c2ccccc2[n+]1[O-])c1ccccc1", "note": "[phenyl, 2-(Benzoyl-hydrazono-formyl)-quinoxaline-1,4-dioxide]", "values": [{"measurement": "Fodder utilization factor", "setting": "pigs", "value": 66}, {"measurement": "LD50", "setting": "oral toxicity on mice; oral, mice", "value": 4000, "unit": "mg/kg"}]}
{"smiles": "COC(=O)NN=Cc1c[n+]([O-])c2ccccc2[n+]1[O-]", "note": "[methoxy, 2-(Methoxycarbonyl-hydrazono-formyl)-quinoxaline-1,4-dioxide]", "values": [{"measurement": "Fodder utilization factor", "setting": "pigs", "value": 66}, {"measurement": "LD50", "setting": "oral toxicity on mice; oral, mice", "value": 4000, "unit": "mg/kg"}]}
{"smiles": "O=C(Cc1cccc2ccccc12)NN=Cc1c[n+]([O-])c2ccccc2[n+]1[O-]", "note": "[1-napthylmethyl, 2-(1'-Naphthyl-acetyl)-hydrazono-formyl-quinoxaline-1,4-dioxide]", "values": [{"measurement": "Fodder utilization factor", "setting": "pigs", "value": 93.5}, {"measurement": "LD50", "setting": "oral toxicity on mice; po", "value": 13000, "unit": "mg/kg"}]}
{"smiles": "O=C(NN=Cc1c[n+]([O-])c2ccccc2[n+]1[O-])c1ccncc1", "note": "[Example 4-pyridyl, 2-(Isonicotinoyl)-hydrazono-formyl-quinoxaline-1,4-dioxide]", "values": [{"measurement": "Fodder utilization factor", "setting": "pigs", "value": 91}, {"measurement": "LD50", "setting": "oral toxicity on mice; oral, mice", "value": 12000, "unit": "mg/kg"}]}
